From patent US10947252B2, “Inhibitors of KEAP1-Nrf2 protein-protein interaction” (Janssen Pharmaceutica NV, priority 2018, dated 2021) come the findings set out here.

The target of assay [1] is Kelch domain of human KEAP1 (321-624 aa) (Homo sapiens (Human), UniProt Q14145). The assay can be described thus: KEAP1 KELCH ThermoFluor binding assay.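 Note: Ligand-induced melting temperature shift of E. coli-expressed KEAP1 Kelch protein, Kd estimated from concentration-response curves of ΔTm.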 The conditions noted are these: KEAP Kelch […], 1,8-ANS, pH 7.0, average of results obtained, read-out: Tf Kd.
Assay [2] concerns Glo-Response ARE-luc2P HEK293 cell line. The assay can be described thus: ARE luciferase reporter cell-based assay.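 Note: luciferase signal tracks Nrf2 activation of the ARE once compounds disrupt KEAP1-Nrf2 binding, read with One-Glo reagent, DMSO serving as low control.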 As to conditions: Homo sapiens, HEK293, 24 h, average of results obtained. A general note: A reporter such as luciferase makes a cellular process visible.

Sequence of Kelch domain of human KEAP1 (321-624 aa) (Q14145 321-624): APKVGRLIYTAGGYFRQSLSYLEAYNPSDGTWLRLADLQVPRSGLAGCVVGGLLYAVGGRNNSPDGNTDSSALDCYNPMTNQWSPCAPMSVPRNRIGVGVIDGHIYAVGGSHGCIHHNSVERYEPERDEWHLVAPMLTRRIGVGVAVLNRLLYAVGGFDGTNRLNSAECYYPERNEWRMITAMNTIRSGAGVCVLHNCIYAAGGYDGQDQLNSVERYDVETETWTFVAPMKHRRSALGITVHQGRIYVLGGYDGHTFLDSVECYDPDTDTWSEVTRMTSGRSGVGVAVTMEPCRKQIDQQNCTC

As usually defined, the Kd is the free concentration of one partner at which half of the binding sites on the other are occupied at equilibrium, for simple one-to-one binding. For orientation: EC50 means the concentration at which the effect is half-maximal. A higher EC50 goes with a need for much substance. As to `Cc1ccc([C@@H](CC(=O)O)c2ccn3c(C(F)(F)F)nnc3c2C)cc1CN1C[C@H]2CCCN2c2ncccc2S1(=O)=O` (single isomer, unassigned) [Example 390, (*R)-3-(3-(((R)-5,5-Dioxido-7a,8,9,10-tetrahydropyrido[2,3-f]pyrrolo[2,1-d][1,2,5]thiadiazepin-6(7H)-yl)methyl)-4-methylphenyl)-3-(8-methyl-3-(trifluoromethyl)-[1,2,4]triazolo[4,3-a]pyridin-7-yl)propanoic Acid], the Kd in assay [1] was below 1 nM. In assay [2], the response was half-maximal at 90.9 nM (EC50).

As to `Cc1cnc2c(c1)S(=O)(=O)N(Cc1cc([C@H](c3ccn4c(C(F)(F)F)nnc4c3C)C(C)(C)C(=O)O)cnc1C)CC1(CCOCC1)O2` (single isomer, unassigned) [Example 585, (*S)-2,2-Dimethyl-3-(8-methyl-3-(trifluoromethyl)-[1,2,4]triazolo[4,3-a]pyridin-7-yl)-3-(6-methyl-5-((8′-methyl-1′,1′-dioxido-2,3,5,6-tetrahydrospiro[pyran-4,4′-pyrido[2,3-b][1,4,5]oxathiazepin]-2′(3′H)-yl)methyl)pyridin-3-yl)propanoic Acid], the Kd in assay [1] was below 1 nM. The EC50 in assay [2] came out at 253 nM.

As for `Cc1ccc([C@@H](c2ccn3c(C(F)(F)F)nnc3c2C)C(C)(C)C(=O)O)cc1CN1CC2(CCOCC2)Oc2nc(CCC(=O)NC3CCC3)ccc2S1(=O)=O` (single isomer, unassigned) [Example 605, (*S)-3-(3-((7′-(3-Cyclobutylamino-3-oxopropyl)-1′,1′-dioxido-2,3,5,6-tetrahydrospiro[pyran-4,4′-pyrido[2,3-b][1,4,5]oxathiazepin]-2′(3′H)-yl)methyl)-4-methylphenyl)-2,2-dimethyl-3-(8-methyl-3-(trifluoromethyl)-[1,2,4]triazolo[4,3-a]pyridine-7-yl)propanoic Acid], the Kd in assay [1] is below 1 nM. The molecule further returned an EC50 in assay [2] of 109 nM.

As for `Cc1ccc([C@@H](CC(=O)O)c2ccn3c(C(F)(F)F)nnc3c2C)nc1CN1C[C@H]2CCCCN2c2ncc(C#N)cc2S1(=O)=O` (single isomer, unassigned) [Example 35, (*S)-3-(6-(((*R)-3-Cyano-5,5-dioxido-7,7a,8,9,10,11-hexahydro-6H-dipyrido[2,1-d:2′,3′-f][1,2,5]thiadiazepin-6-yl)methyl)-5-methylpyridin-2-yl)-3-(8-methyl-3-(trifluoromethyl)-[1,2,4]triazolo[4,3-a]pyridin-7-yl)propanoic Acid], the Kd in assay [1] is below 1 nM. Moreover, the EC50 in assay [2] stood at 65.7 nM.

Take `Cc1cnc2c(c1)S(=O)(=O)N(Cc1nc([C@H](c3ccn4c(C(F)F)nnc4c3C)C(C)(C)C(=O)O)ccc1C)CC1(COC1)O2` (single isomer, unassigned) [Example 626, (*R)-3-(3-(Difluoromethyl)-8-methyl-[1,2,4]triazolo[4,3-a]pyridin-7-yl)-2,2-dimethyl-3-(5-methyl-6-((8′-methyl-1′,1′-dioxidospiro[oxetane-3,4′-pyrido[2,3-b][1,4,5]oxathiazepin]-2′(3′H)-yl)methyl)pyridin-2-yl)propanoic Acid]: the Kd in assay [1] came out at 2980 nM. The molecule further yielded an EC50 in assay [2] of 229 nM.

In the case of `Cc1ccc([C@@H](c2cc(C)n3c(C(F)(F)F)nnc3c2C)C(C)C(=O)O)cc1CN1C[C@@H]2CCCCN2c2ncccc2S1(=O)=O` (relative stereo) [Example 134, (3*S)-3-(5,8-Dimethyl-3)-(trifluoromethyl)-[1,2,4-triazolo[4,3-a]pyridine-7-yl)-3-(3-(((*S)-5,5-dioxido-7,7a,8,9,10,11-hexahydro-6H-dipyrido[2,1-d:2′,3′-][1,2,5]thiadiazepin-6-yl)methyl)-4-methylphenyl)-2-methylpropanoic Acid], the Kd in assay [1] was below 1 nM. The same molecule came in with an EC50 in assay [2] of 61.3 nM.

With `Cc1ccc([C@H](CC(=O)O)c2ccn3c(C(F)F)nnc3c2C)cc1CN1C[C@@H]2CCCN2c2ncc(C#N)cc2S1(=O)=O` (single isomer, unassigned) [Example 543, (*S)-3-(3-(((S)-3-Cyano-5,5-dioxido-7a,8,9,10-tetrahydropyrido[2,3-f]pyrrolo[2,1-d][1,2,5]thiadiazepin-6(7H)-yl)methyl)-4-methylphenyl)-3-(3-(difluoromethyl)-8-methyl-[1,2,4]triazolo[4,3-a]pyridin-7-yl)propanoic Acid], the Kd in assay [1] is below 1 nM. In assay [2], it took 42.9 nM to reach a half-maximal effect (EC50).

Take `Cc1ccc([C@@H](c2ccn3c(C4CC4)nnc3c2C)C(C)(C)C(=O)O)cc1CN1CC2(COC2)Oc2ncccc2S1(=O)=O` (single isomer, unassigned) [Example 621, (*S)-3-(3-Cyclopropyl-8-methyl-[1,2,4]triazolo[4,3-a]pyridin-7-yl)-3-(3-((1′,1′-dioxidospiro[oxetane-3,4′-pyrido[2,3-b][1,4,5]oxathiazepin]-2′(3′H)-yl)methyl)-4-methylphenyl)-2,2-dimethylpropanoic Acid]: the Kd in assay [1] was below 1 nM. For the same molecule, the EC50 in assay [2] was 5640 nM.

Consider `Cc1ccc([C@H](CC(=O)O)c2ccc3c(nnn3C3CC3)c2C)cc1CN1C[C@H]2CCCN2c2ncccc2S1(=O)=O` (single isomer, unassigned) [Example 210, (*S)-3-(1-Cyclopropyl-4-methyl-1H-benzo[d][1,2,3]triazol-5-yl)-3-(3-(((R)-5,5-dioxido-7a,8,9,10-tetrahydropyrido[2,3-f]pyrrolo[2,1-d][1,2,5]thiadiazepin-6(7H)-yl)methyl)-4-methylphenyl)propanoic Acid], for which, in assay [1], the Kd is below 1 nM. The same molecule gave an EC50 in assay [2] of 7.7 nM.

As for `Cc1ccc([C@@H](c2ccn3c(C(F)(F)F)nnc3c2C)C(C)(C)C(=O)O)cc1CN1CC2(CCOCC2)Oc2ncccc2S1(=O)=O` (single isomer, unassigned) [Example 409, (*S)-3-(3-((1′,1′-dioxido-2,3,5,6-tetrahydrospiro[pyran-4,4′-pyrido[2,3-b][1,4,5]oxathiazepin]-2′(3′H)-yl)methyl)-4-methylphenyl)-2,2-dimethyl-3-(8-methyl-3-(trifluoromethyl)-[1,2,4]triazolo[4,3-a]pyridin-7-yl)propanoic Acid], the Kd in assay [1] is below 1 nM. Also, the EC50 in assay [2] came to 2.64 nM.

For `Cc1ccc([C@H](c2ccn3c(C(F)(F)F)nnc3c2C)C(C)(C)C(=O)O)cc1CN1CC2(CCOCC2)Oc2nc(NCCN3CCNCC3)c(C)cc2S1(=O)=O` (single isomer, unassigned) [Example 366], in assay [1], the Kd is below 1 nM. This molecule displayed an EC50 in assay [2] of 407 nM.

As for `Cc1ccc([C@H](c2ccn3c(C(F)(F)F)nnc3c2C)C(C)(C)C(=O)O)cc1CN1CC2(CC2)Oc2nc(OCCN3CCCC3)c(C)cc2S1(=O)=O` (single isomer, unassigned) [Example 658, (*R)-2,2-dimethyl-3-(4-methyl-3-((8′-methyl-1′,1′-dioxido-7′-(2-(pyrrolidin-1-yl)ethoxy)spiro[cyclopropane-1,4′-pyrido[2,3-b][1,4,5]oxathiazepin]-2′(3′H)-yl)methyl)phenyl)-3-(8-methyl-3-(trifluoromethyl)-[1,2,4]triazolo[4,3-a]pyridin-7-yl)propanoic Acid], the Kd in assay [1] was determined as 1210 nM. For the same molecule, the EC50 in assay [2] was 6050 nM.

As for `Cc1ccc([C@@H](c2ccn3c(C(F)(F)F)nnc3c2C)C(C)(C)C(=O)O)cc1CN1CC2(CCOCC2)Oc2nc(O[C@@H](C)CN3CCCCC3)c(C)cc2S1(=O)=O` (single isomer, unassigned) [Example 602, (*S)-2,2-Dimethyl-3-(4-methyl-3-((8′-methyl-1′,1′-dioxido-7′-(((*S)-1-(piperidin-1-yl)propan-2-yl)oxy)-2,3,5,6-tetrahydrospiro[pyran-4,4′-pyrido[2,3-b][1,4,5]oxathiazepin]-2′,(3′H)-yl)methyl)phenyl)-3-(8-methyl-3-(trifluoromethyl)-[1,2,4]triazolo[4,3-a]pyridine-7-yl)propanoic Acid], the Kd in assay [1] was below 1 nM. The molecule also showed an EC50 in assay [2] of 2.72 nM.

For the molecule `Cc1ccc([C@@H](c2ccn3c(C(F)(F)F)nnc3c2C)C(C)(C)C(=O)O)cc1CN1CC2(CCOCC2)Oc2nc(OC(C)CN3CCCCC3)c(C)cc2S1(=O)=O` (stereo in doubt) [Example 600, (*S)-2,2-Dimethyl-3-(4-methyl-3-((8′-methyl-1′,1′-dioxido-7′-((1-(piperidin-1-yl)propan-2-yl)oxy)-2,3,5,6-tetrahydrospiro[pyran-4,4′-pyrido[2,3-b][1,4,5]oxathiazepin]-2′,(3′H)-yl)methyl)phenyl)-3-(8-methyl-3-(trifluoromethyl)-[1,2,4]triazolo[4,3-a]pyridine-7-yl)propanoic Acid], in assay [1], the Kd is below 1 nM. The molecule further gave an EC50 in assay [2] of 4.58 nM.

In the case of `Cc1ccc(C(CC(=O)O)c2ccc3c(nnn3CC3CC3)c2C(F)F)cc1CN1CC2CCCN2c2ncccc2S1(=O)=O` (stereo not shown) [Example 65], the Kd in assay [1] was determined as 2.5 nM. In assay [2], this molecule came in with an EC50 of 360 nM.

As for `Cc1ccc([C@H](CC(=O)O)c2ccn3c(C(F)(F)F)nnc3c2C)nc1CN1C[C@H]2CCCCN2c2ncc(C#N)cc2S1(=O)=O` (single isomer, unassigned) [Example 36, (*R)-3-(6-(((*R)-3-Cyano-5,5-dioxido-7,7a,8,9,10,11-hexahydro-6H-dipyrido[2,1-d:2′,3′-f][1,2,5]thiadiazepin-6-yl)methyl)-5-methylpyridin-2-yl)-3-(8-methyl-3-(trifluoromethyl)-[1,2,4]triazolo[4,3-a]pyridin-7-yl)propanoic Acid], the Kd in assay [1] was below 1 nM. In assay [2], this molecule came in with an EC50 of 15.2 nM.

As for `CCn1nnc2c(C)c([C@@H](c3ccc(C)c(CN4CC5(CCOCC5)Oc5ncccc5S4(=O)=O)c3)C(C)(C)C(=O)O)ccc21` (single isomer, unassigned) [Example 16, (*R)-3-(3-((1′,1′-Dioxido-2,3,5,6-tetrahydrospiro[pyran-4,4′-pyrido[2,3-b][1,4,5]oxathiazepin]-2′(3′H)-yl)methyl)-4-methylphenyl)-3-(1-ethyl-4-methyl-1H-benzo[d][1,2,3]triazol-5-yl)-2,2-dimethylpropanoic Acid], in assay [1], the Kd worked out at 838 nM. The molecule also showed an EC50 in assay [2] of 233 nM.
